Results reported in US9164075B2, “Glutathione alkylester isotopologue and method for detecting reactive metabolite” (priority 2011, dated 2015).

Legend:
[1] = rat, 60 min, 10 μmol/L, pH 7.4
Description: Glutathione ethyl ester (1 mmol/L, 1 μmol) was used as the trapping agent instead of the mixture of glutathione ethyl ester (GSHEE) and glutathione ethyl ester-d5 (GSHEE-d5), and the reaction and measurement were performed in the same manner as in (step 1) and (step 2) described above.
In the MS/MS measurement corresponding to (step 2-3), the MS/MS measurement was performed in a data dependent scan mode in which ions with the strongest intensity in a first spectrum were subjected to collisional activation to thereby obtain a second spectrum. The measurement conditions used are as follows (measurement conditions C).

[2] = for NUMBER OF IDENTIFIED REACTIVE METABOLITES (EXAMPLES): rat, 60 min, 10 μmol/L, pH 7.4
Description: (§1) NADPH (20 mmol/L, […]) was added to the pre-incubated incubation mixture and a reaction (incubation) was started. The final incubation volume was 1 mL. A sample containing no object compound was used as a control.
(§2) After incubation at 37° C. for 60 minutes, a 50 mmol/L aqueous dithiothreitol solution (100 μL, 5 μmol) was added to the incubation mixture, and the resultant mixture was subjected to centrifugation at 10,000 g for 5 minutes. The centrifugation supernatant was added to a solid phase extraction column (OASIS HLB 1 cc, 30 mg) that was pre-washed with 1 mL of methanol and activated with 1 mL of purified water. The column was washed with 1 mL of water and 1 mL of 5% methanol solution, and a reaction product was eluted with 1 mL of methanol. The solvent was removed by evaporation under nitrogen flow, and the residue was dissolved in 150 μL of acetonitrile:water (2:8) to prepare an analysis sample.
(§3) An AQCUITY UPLC system (WATERS) was used for separation by chromatography. Aliquots (10 μL) of the prepared analysis sample was injected into an AQCUITY UPLC BEH C18 column (2.1×100 mm, 1.7 μm). The separation by chromatography was performed under gradient conditions shown in the following table at a mobile phase flow rate of 0.5 mL/minute.
(§4) The LC column eluate obtained in step 2-1 was introduced into an LTQ XL ion trap mass spectrometer. Ionization was performed in an ESI positive mode (a mode for detecting positively charged ions). The measurement conditions used are shown below (measurement conditions A).
The measurement conditions used are shown below (measurement conditions B).
Among the peaks appearing in the final chromatogram, peaks other than the peaks also appearing in the final chromatogram for the control (FIG. 2 or 13) are considered to be the peaks of trapping agent-reactive metabolite adducts.

[3] = Reactive metabolite trapping test with glutathione ethyl ester only, data dependent scan mode with Dynamic Exclusion ON (Comparative Example 8); type: in vitro ADME; details: rat liver microsomes
Description: Omeprazole was used as the object compound. Measurement was performed in the same manner as in Comparative Example 1 except that the MS/MS measurement corresponding to (step 2-3) was performed in a data dependent scan mode (a Dynamic Exclusion ON mode) in which the MS/MS measurement was performed on ions in descending order of intensity. In the data dependent scan mode (Dynamic Exclusion ON mode), ions for a peak with the strongest intensity among the peaks in a first spectrum are subjected to MS/MS measurement three times. Then these ions are eliminated, and ions with the next strongest intensity are subjected to MS/MS measurement three times. This processing is repeated in order of intensity. The measurement conditions used are as follows (measurement conditions D).

[4] = rat, 60 min, 10 μmol/L, pH 7.4; remark: listed apart in the source
Description: as §1
as §2, with “minutes,” for “minutes, a 50 mmol/L aqueous dithiothreitol solution (100 μL, 5 μmol) was added to the incubation mixture, and”, “water,” for “solution,”
as §3, with “under the” for “under”, “TABLE 3” for “the following table”
as §4
The measurement conditions used are shown below (measurement conditions E).
Among the peaks appearing in the final chromatogram, peaks other than the peaks also appearing in the final chromatogram for the control (FIG. 46) are considered to be the peaks of trapping agent-reactive metabolite adducts.

## O=C(O)Cc1ccccc1Nc1c(Cl)cccc1Cl [diclofenac]
[1]
  NUMBER OF IDENTIFIED REACTIVE METABOLITES (COMPARATIVE EXAMPLES, GSHEE): 1

## COc1ccc2[nH]c([S+]([O-])Cc3ncc(C)c(OC)c3C)nc2c1 (centres unmarked) [omeprazole]
[2]
  judgement of reactive metabolite formation: positive
  NUMBER OF IDENTIFIED REACTIVE METABOLITES (EXAMPLES): 2
[1]
  NUMBER OF IDENTIFIED REACTIVE METABOLITES (COMPARATIVE EXAMPLES, GSHEE): 1
[3]
  number of types of reactive metabolite found: one
[4]
  NUMBER OF IDENTIFIED REACTIVE METABOLITES (COMPARATIVE EXAMPLES, [13C2, 15N]GSH): 2

## O=c1c(O)c(-c2ccc(O)c(O)c2)oc2cc(O)cc(O)c12 [quercetin]
[2]
  judgement of reactive metabolite formation: positive
  NUMBER OF IDENTIFIED REACTIVE METABOLITES (EXAMPLES): 3
[1]
  NUMBER OF IDENTIFIED REACTIVE METABOLITES (COMPARATIVE EXAMPLES, GSHEE): 3
[4]
  NUMBER OF IDENTIFIED REACTIVE METABOLITES (COMPARATIVE EXAMPLES, [13C2, 15N]GSH): 2

## O=C(O)COc1ccc(C(=O)c2cccs2)c(Cl)c1Cl [tienilic acid]
[2]
  judgement of reactive metabolite formation: positive
  NUMBER OF IDENTIFIED REACTIVE METABOLITES (EXAMPLES): 1
[1]
  NUMBER OF IDENTIFIED REACTIVE METABOLITES (COMPARATIVE EXAMPLES, GSHEE): 0
[4]
  NUMBER OF IDENTIFIED REACTIVE METABOLITES (COMPARATIVE EXAMPLES, [13C2, 15N]GSH): 1
